Measured values published in patent US20120214818A1, “METHODS OF TREATING DIASTOLIC DYSFUNCTION AND RELATED CONDITIONS” (THE BOARD OF TRUSTEES OF THE UNIVERSITY OF ILLINOIS, priority 2009, published 2012).

Legend:
[1] = system: myofilaments of skinned left ventricular papillary fiber bundles; assay: Simultaneous tension and ATPase rate in skinned fiber bundles (second series); type: biochemical, mouse; settings: ranolazine 15 min; for Maximum ATPase: 20° C.; for Ktr, the rate constant for force redevelopment: in s-1 (unit assumed)
Protocol: We measured myofilament response to Ca^2+ under two experimental conditions as described in detail below. In a first series of experiments the skinned fiber bundles were mounted in a force measuring apparatus and sarcomere length (SL) was adjusted to 2.2 μm using a laser diffraction pattern and width and thickness were determined for calculation of cross-sectional area. Force was measured over a range of pCa values Skinned fiber bundles were treated with 10 μmol/L ranolazine for 15 min prior to evaluation. In a second series of experiments under different experimental conditions, we determined steady-state Mg-ATPase activity, while simultaneously measuring isometric tension in skinned fiber bundles as a function of pCa. In all experiments, skinned fibers were treated with ranolazine or DMSO vehicle for 15 min prior to beginning either tension or tension/ATPase rate measurements. Tension generated was computed from the force/cross-sectional area and data were analyzed in the GraphPad Prism software and fit with a sigmoidal modified Hill equation in order to generate tension-pCa curves, Hill coefficients, and pCa50 (pCa value at half-maximum tension). We also determined cross-bridge kinetics employing a quick release/restretch protocol. The rate constant for force redevelopment, Ktr, provides a measure of the rate of cross-bridge entry into the force generating state. In all experiments, only fiber bundles retaining more than 80% of their initial maximum tension were included in the analysis. We treated the fibers with ranolazine from a DMSO stock solution or DMSO alone added to relaxing solution for 15 min prior to the experimental run. Methods for gel electrophoresis analysis of myofilament protein phosphorylation and oxidative modifications are provided below.
Studies with detergent extracted (skinned) fiber bundles: Mice were anesthetized with pentobarbital (50 mg/kg IP), and the hearts were rapidly excised and rinsed in a pH 7.0 ice-cold relaxing solution (HR) composed of (in mM) 10 EGTA, 41.89K-Prop, 6.57 MgCl2, 100 BES, 6.22 ATP, 5 Na azide, and 10 creatine phosphate. The solution also contained 1 μg/ml leupeptin, 2.5 μg/ml pepstatin A, and 50 μM phenylmethylsulfonyl fluoride. Left ventricular papillary muscles were dissected and fiber bundles were prepared as previously described (Wolska et al., J. Physiol. 536: 863-870 (2001)). The fiber bundles were extracted overnight in relaxing solution plus 1% Triton X-100 at 4° C.
In a second series of experiments force and ATPase rate were measured simultaneously using methods and an experimental apparatus previously described (de Tombe et al., Circ Res 76: 734-741 (1995); Wolska et al., Circ Res 84: 745-751 (1999)). The fiber bundles were mounted between a force transducer and displacement motor using aluminum T-clips, and the sarcomere length was set to 2.2 μm using He—Ne laser diffraction (Vahebi et al., Circ Res 96: 740-747 (2005)). The width and diameter were each measured at three points along the fiber bundle. Force per cross-sectional area was used to determine tension. The fiber was contracted initially at a saturating calcium concentration (pCa 4.5) and sarcomere length was again adjusted to 2.2 μm. Sarcomere length remained constant throughout the rest of the experiment.
ATPase activity was measured at 20° C. as previously described and calibrated with rapid injections of ADP (0.5 nmol) with a motor-controlled syringe (de Tombe et al., 1990, supra; Wolska et al., 1999, supra). The fiber was placed in relaxing solution for 2 min, then in the preactivation solution for 2-3 min each time before being placed in the activating solution for 1-2 min (until stabilization of force) and then quickly returned to the relaxing solution. Various contraction-relaxation cycles were carried out using different ratios of total calcium concentration to total EGTA concentration. The final contraction was again at a saturating calcium concentration. […]

[2] = system: DOCA-salt mice; assay: Myofilament calcium sensitivity of fibers from mice chronically treated with ranolazine; type: in vivo, mouse; settings: fibers from hearts of DOCA-salt mice chronically treated with ranolazine vs. DOCA-salt mice
Protocol: A special diet contained 5 mg ranolazine, 0.3 mg P450 inhibitor, and 0.25 mg red food color was pressed into a 1-g nutritionally complete grain-based tablet (Harlan, Madison, Wis.). The control diet contained 0.3 mg P450 inhibitor and 0.25 mg yellow food color pressed into the same type of 1-g tablets. DOCA-salt and sham mice consumed daily ˜1 g of the special diet from postoperative day 11 to 18. […] We also determined Ktr, which is a measure of the rate of re-entry of cross-bridges into force generating states.

[3] = system: dog model of chronic heart failure; settings: cited from earlier work

Maximum Tension ([1]; DOCA-salt fiber bundles): 27.19 ± 0.54 mN/mm^2
Passive Tension ([1]; DOCA-salt fiber bundles): 0.68 ± 0.40 mN/mm^2
Tension Cost ΔATPase/ΔTension ([1]; DOCA-salt fiber bundles): 10.8 ± 0.8
Maximum ATPase ([1]; DOCA-salt fiber bundles): 326.9 ± 8.7 pmol/s/mg
Ktr, the rate constant for force redevelopment ([1]; DOCA-salt fiber bundles): 11.0 ± 1.0
Maximum Tension ([1]; sham fiber bundles): 36.80 ± 0.16 mN/mm^2
Passive Tension ([1]; sham fiber bundles): 0.55 ± 0.33 mN/mm^2
Tension Cost ΔATPase/ΔTension ([1]; sham fiber bundles): 7.1 ± 0.4
Maximum ATPase ([1]; sham fiber bundles): 302.0 ± 9.0 pmol/s/mg
Ktr, the rate constant for force redevelopment ([1]; sham fiber bundles): 11.2 ± 0.5
Compound: COc1ccccc1OCC(O)CN1CCN(CC(=O)Nc2c(C)cccc2C)CC1 (stereo not drawn) [ranolazine]
maximal tension in response to Ca2+ [2]: significantly reduces maximal tension
LVEDP [3]: reduces LVEDP
